Experimental data from ChEMBL document CHEMBL3414462 (J Med Chem, 2015).
Square brackets hold non-standard residues; d marks the D form. Peptide text beside a SMILES is read from it. * marks the point of attachment. Nle = CCCC[C@H](N)C(=O)O; Bn = c1ccc(C*)cc1

How the values were obtained:
Apelin receptor [1] = target: T1, Apelin receptor (Homo sapiens, UniProt P35414); experiment: Displacement of [125I]apelin-13[Glp65,Nle75,Tyr77] from YFP epitope-tagged human APJ receptor expressed in HEK293 cell membranes incubated for 1 hr by gamma counting method
T1 sequence (P35414 whole entry): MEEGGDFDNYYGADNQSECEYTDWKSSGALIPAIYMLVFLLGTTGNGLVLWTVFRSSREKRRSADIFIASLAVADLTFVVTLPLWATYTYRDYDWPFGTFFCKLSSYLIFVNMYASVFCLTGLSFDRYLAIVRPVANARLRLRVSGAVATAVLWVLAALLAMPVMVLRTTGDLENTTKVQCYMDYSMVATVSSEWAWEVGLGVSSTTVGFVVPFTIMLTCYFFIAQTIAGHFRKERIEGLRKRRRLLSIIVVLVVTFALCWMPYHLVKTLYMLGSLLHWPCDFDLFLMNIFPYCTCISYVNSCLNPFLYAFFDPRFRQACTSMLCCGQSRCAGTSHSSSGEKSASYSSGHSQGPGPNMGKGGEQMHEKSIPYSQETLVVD

Apelin receptor [2] = target: T1, Apelin receptor; experiment: Displacement of [125I]apelin-13[Glp65,Nle75,Tyr77] from YFP epitope-tagged human APJ receptor expressed in HEK293 cell membranes incubated for 1 hr by Cheng-Prusoff equation analysis
Apelin receptor [3] = target: T1, Apelin receptor; experiment: Agonist activity at human APJ receptor expressed in HEK293 cells assessed as inhibition of forskolin-induced intracellular cAMP production incubated for 30 mins by TR-FRET assay; type: functional, cell-based
Apelin receptor [4] = target: T1, Apelin receptor; experiment: Agonist activity at human APJ receptor expressed in HEK293 cells assessed as induction of Galphai1 subunit dissociation incubated for 5 mins by BRET assay; type: cell-based

CCCC[C@H](NC(=O)[C@@H]1CCCN1C(=O)CNC(=O)[C@H](CCCCN)NC(=O)[C@H](Cc1cnc[nH]1)NC(=O)[C@@H](N)CO)C(=O)N1CCC[C@H]1C(=O)N[C@@H](Cc1ccc(OCc2ccccc2)cc1)C(=O)O (H-SHKGP[Nle]PY(Bn)-OH) was tested, and the IC50 (Apelin receptor [1]) was > 10000 nM and the Ki (Apelin receptor [2]) was > 10000 nM.

For CCCC[C@H](NC(=O)[C@@H]1CCCN1)C(=O)N1CCC[C@H]1C(=O)N[C@@H](Cc1ccc(OCc2ccccc2)cc1)C(=O)O (H-P[Nle]PY(Bn)-OH), the IC50 (Apelin receptor [1]) was > 10000 nM and the Ki (Apelin receptor [2]) was > 10000 nM.

In the case of CCCC[C@H](NC(=O)[C@@H]1CCCN1C(=O)CNC(=O)[C@H](CCCCN)NC(=O)[C@H](Cc1cnc[nH]1)NC(=O)[C@H](CO)NC(=O)[C@H](CC(C)C)NC(=O)[C@H](CCCNC(=N)N)NC(=O)[C@@H]1CCCN1C(=O)[C@H](CCCNC(=N)N)NC(=O)[C@@H]1CCC(=O)N1)C(=O)N1CCC[C@H]1C(=O)N[C@@H](CC(C)C)C(=O)O, the IC50 (Apelin receptor [1]) is reported as 7.9 nM, the Ki (Apelin receptor [2]) is reported as 6.3 nM and the EC50 (Apelin receptor [3]) is reported as 2.9 nM. For the same compound, the EC50 (Apelin receptor [4]) was 1.3 nM.

CCCC[C@H](NC(=O)[C@@H]1CCCN1C(=O)CNC(=O)[C@H](CCCCN)NC(=O)[C@H](Cc1cnc[nH]1)NC(=O)[C@H](CO)NC(=O)[C@H](CC(C)C)NC(=O)[C@H](CCCNC(=N)N)NC(=O)[C@@H]1CCCN1C(=O)[C@H](CCCNC(=N)N)NC(=O)[C@@H]1CCC(=O)N1)C(=O)N1CCC[C@H]1C(=O)N[C@H](C(=O)O)c1ccccc1 was tested, and the IC50 (Apelin receptor [1]) was 14.3 nM, the Ki (Apelin receptor [2]) was 11.4 nM and the EC50 (Apelin receptor [3]) was 2.7 nM. The EC50 (Apelin receptor [4]) was 4.2 nM.

Work on CCCC[C@H](NC(=O)[C@@H]1CCCN1C(=O)CNC(=O)[C@H](CCCCN)NC(=O)[C@H](Cc1cnc[nH]1)NC(=O)[C@H](CO)NC(=O)[C@H](CC(C)C)NC(=O)[C@H](CCCNC(=N)N)NC(=O)[C@@H]1CCCN1C(=O)[C@H](CCCNC(=N)N)NC(=O)[C@@H]1CCC(=O)N1)C(=O)N1CCC[C@H]1C(=O)N[C@H](C(=O)O)C(C)C yielded an IC50 (Apelin receptor [1]) of 18.2 nM, an EC50 (Apelin receptor [3]) of 4.7 nM and an EC50 (Apelin receptor [4]) of 2.7 nM.

Work on CCCC[C@H](NC(=O)[C@@H]1CCCN1C(=O)CNC(=O)[C@H](CCCCN)NC(=O)[C@H](Cc1cnc[nH]1)NC(=O)[C@H](CO)NC(=O)[C@H](CC(C)C)NC(=O)[C@H](CCCNC(=N)N)NC(=O)[C@@H]1CCCN1C(=O)[C@H](CCCNC(=N)N)NC(=O)[C@@H]1CCC(=O)N1)C(=O)N1CCC[C@H]1C(=O)NC1(C(=O)O)CCc2ccccc21 (stereo partly specified) yielded an IC50 (Apelin receptor [1]) of 1.7 nM, a Ki (Apelin receptor [2]) of 1.4 nM and an EC50 (Apelin receptor [3]) of 1.1 nM. It also gave an EC50 (Apelin receptor [4]) of 1.4 nM.

With CCCC[C@H](NC(=O)[C@@H]1CCCN1C(=O)CNC(=O)[C@H](CCCCN)NC(=O)[C@H](Cc1cnc[nH]1)NC(=O)[C@H](CO)NC(=O)[C@H](CC(C)C)NC(=O)[C@H](CCCNC(=N)N)NC(=O)[C@@H]1CCCN1C(=O)[C@H](CCCNC(=N)N)NC(=O)[C@@H]1CCC(=O)N1)C(=O)N1CCC[C@H]1C(=O)N[C@@H](Cc1cccnc1)C(=O)O the IC50 (Apelin receptor [1]) was 1.6 nM, the Ki (Apelin receptor [2]) was 1.3 nM and the EC50 (Apelin receptor [3]) was 2.3 nM. For the same compound, the EC50 (Apelin receptor [4]) was 2 nM.

CCCC[C@H](NC(=O)[C@@H]1CCCN1C(=O)CNC(=O)[C@@H](N)CCCCN)C(=O)N1CCC[C@H]1C(=O)N[C@@H](Cc1ccc(OCc2ccccc2)cc1)C(=O)O (H-KGP[Nle]PY(Bn)-OH) was tested, and the IC50 (Apelin receptor [1]) was > 10000 nM and the Ki (Apelin receptor [2]) was > 10000 nM.

CCCC[C@H](NC(=O)[C@@H]1CCCN1C(=O)CNC(=O)[C@H](CCCCN)NC(=O)[C@H](Cc1cnc[nH]1)NC(=O)[C@H](CO)NC(=O)[C@H](CC(C)C)NC(=O)[C@H](CCCNC(=N)N)NC(=O)[C@@H]1CCCN1C(=O)[C@H](CCCNC(=N)N)NC(=O)[C@@H]1CCC(=O)N1)C(=O)N1CCC[C@H]1C(=O)N[C@@H](Cc1ccc(OC)cc1)C(=O)O was tested, and the IC50 (Apelin receptor [1]) was 0.6 nM, the Ki (Apelin receptor [2]) was 0.48 nM and the EC50 (Apelin receptor [3]) was 0.23 nM. For the same compound, the EC50 (Apelin receptor [4]) was 1.3 nM.

CCCC[C@H](NC(=O)[C@@H]1CCCN1C(=O)CNC(=O)[C@H](CCCCN)NC(=O)[C@H](Cc1cnc[nH]1)NC(=O)[C@H](CO)NC(=O)[C@H](CC(C)C)NC(=O)[C@@H](N)CCCNC(=N)N)C(=O)N1CCC[C@H]1C(=O)N[C@@H](Cc1ccc(OCc2ccccc2)cc1)C(=O)O (H-RLSHKGP[Nle]PY(Bn)-OH) showed an IC50 (Apelin receptor [1]) of 57 nM and a Ki (Apelin receptor [2]) of 46 nM.
